Assay results published in US20240261424A1, “ANTIBODY DRUG CONJUGATE” (NATIONAL CANCER CENTER, priority 2020, published 2024).
Like-named read-outs stand apart in the source and are kept apart here. Where a SMILES comes first, the peptide text is derived from it. [ ]: non-standard residue; d: D form. The star is where a group is joined. Dolaproine = CO[C@@H]([C@@H]1CCCN1)[C@@H](C)C(=O)O; Dil = CC[C@H](C)[C@H](NC)[C@@H](CC(=O)O)OC; X1 = C[C@@H](N*)[C@@H](O)c1ccccc1; NMeV = CN[C@H](C(=O)O)C(C)C

Columns and labels:
[1] = test system: human pancreatic adenocarcinoma cell line (PSN-1); assay: Cell-killing effect on PSN-1; type: cell-based; conditions: read-out: IC50 values for PSN-1
Experimental: (§1) The ADCs prepared above were evaluated in vitro for their cell-killing effects on human pancreatic adenocarcinoma cells by the following method.
(§2) RPMI-1640 supplemented with 10% fetal bovine serum and penicillin-streptomycin-[…] (×100) suspension was used as the culture medium. Human pancreatic adenocarcinoma BxPC-3, PSN-1, and HPAF-II were adjusted to 5000 cells/mL, 2000 cells/mL, and 5000 cells/mL, respectively, and seeded on 96-well plates at 100 μL/well and allowed to stand overnight in a CO2 incubator (37° C.).
(§3) The ADCs, Dxd single agent, and MMAE single agent were each adjusted with a culture solution so that the final concentration (in terms of MMAE and Dxd) was 0.1, 0.3, 1, 3, 10, 30, 100 nM, or the like, and were added at 100 μL/well to a 96-well plate inoculated with each human pancreatic adenocarcinoma, and then allowed to stand in a CO2 incubator (37° C.) for 6 days. Then, the culture medium containing the drug was removed with an aspirator, and the number of viable cells was measured by Cell Counting Kit-8 (manufactured by Dojindo Laboratories) according to the attached protocol. The reaction time of the reagent was three hours, and the absorbance was measured by SpectraMax Paradigm (manufactured by Molecular Devices). FIGS. 1A to 1E show the results of the cell-killing effects.

[2] = test system: human pancreatic adenocarcinoma cell line (BxPC-3); assay: Cell-killing effect on BxPC-3; type: cell-based; conditions: read-out: IC50 values for BxPC-3
Experimental: as §1, §2, §3

Compound | IC50 ([1]; FIG. 1B, concentration in terms of MMAE and Dxd, 6 days, Cell Counting Kit-8) [nM] | IC50 ([2]; FIG. 1A, concentration in terms of MMAE and Dxd, 6 days, Cell Counting Kit-8) [nM] | IC50 ([1]; Homo sapiens, PSN1, 144 h) [nM] | IC50 ([2]; Homo sapiens, BXPC-3, 144 h) [nM]
CC[C@H](C)[C@@H]([C@@H](CC(=O)N1CCC[C@H]1[C@H](OC)[C@@H](C)C(=O)N[C@H](C)[C@@H](O)c1ccccc1)OC)N(C)C(=O)[C@@H](NC(=O)[C@@H](NC)C(C)C)C(C)C [MMAE, monomethyl auristatin E] (H-[NMeV]V[Dil][Dolaproine]-X1) | 0.73 ± 0.04 | 0.62 ± 0.04 | – | –
CC[C@@]1(O)C(=O)OCc2c1cc1n(c2=O)Cc2c-1nc1cc(F)c(C)c3c1c2[C@@H](NC(=O)CO)CC3 [Dxd] | – | – | 7.92 ± 0.84 | 2.58 ± 0.26
